# Reference: patent publication US20260078089A1, “BIOACTIVE PHYTOCHEMICALS IN ZIZYPHUS AND GUARANA” (Phytoquest Limited, priority 2018, published 2026)
# Columns and labels:
# [1] = molecular target: T1, α-L-fucosidase (Bos taurus, UniProt Q2KIM0); assay: Glycosidase assay, p-nitrophenyl substrate; format: biochemical; settings: Bovine kidney enzyme; screened at 0.14 mg mL−1 (footnote: 0.4 mM)
# T1 construct: purchased Sigma Aldrich Chemicals Limited
# T1 sequence (Q2KIM0 23-468): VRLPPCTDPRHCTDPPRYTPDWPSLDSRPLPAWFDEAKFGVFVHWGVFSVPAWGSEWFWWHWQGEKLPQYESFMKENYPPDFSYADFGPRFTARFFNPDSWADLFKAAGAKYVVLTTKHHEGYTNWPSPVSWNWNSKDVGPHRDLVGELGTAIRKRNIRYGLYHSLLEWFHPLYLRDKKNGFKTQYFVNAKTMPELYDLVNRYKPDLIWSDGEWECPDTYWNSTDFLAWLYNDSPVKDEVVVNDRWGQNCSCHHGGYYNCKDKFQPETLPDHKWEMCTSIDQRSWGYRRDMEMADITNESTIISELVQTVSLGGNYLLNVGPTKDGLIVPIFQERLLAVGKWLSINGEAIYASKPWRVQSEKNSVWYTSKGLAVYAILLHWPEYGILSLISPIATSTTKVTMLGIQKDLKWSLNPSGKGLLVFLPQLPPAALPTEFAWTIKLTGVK
# Method: (§1) Glycosidase assays were conducted as described by Watson et al. (Phytochemistry 1997, 46, 255) using p-nitrophenyl-substrates (except sialidase which used methylumbeliferyl-N-acetyineuraminic acid as substrate). Assays were carried out in microtitre plates. Enzymes were assayed in 0.1 M citric acid/0.2 M di-sodium hydrogen phosphate (McIlvaine) buffers at the optimum pH for the enzyme. All assays were carried out at 20° C. All enzymes and substrates were purchased from Sigma Aldrich Chemicals Limited. The incubation mixture consisted of 10 μl of enzyme solution, 10 μl of the iminosugars solution and 50 μl of the appropriate 5 mM p-nitrophenyl substrate made up in McIlvaine buffer at the optimum pH for the enzyme. The reactions were stopped with 0.4 M glycine (pH 10.4) during the exponential phase of the reaction. Absorbances were read at 405 nm. Water was substituted for the alkaloids in the blanks. Reactions were carried out in triplicate.
# (§2) Enzyme inhibitor solutions—Compounds were dissolved in distilled water at a concentration of 1 mg mL^−1 and then screened at a concentration of 0.14 mg mL^−1 after dilution of the 1 mg mL^−1 in the assay volumes of substrates.
# [2] = molecular target: T2, α-D-glucosidase (Oryza sativa subsp. japonica, UniProt Q653V7); assay: Glycosidase assay, p-nitrophenyl substrate; format: biochemical; settings: Rice enzyme; screened at 0.14 mg mL−1 (footnote: 0.4 mM)
# T2 construct: purchased Sigma Aldrich Chemicals Limited
# Method: as §1, §2
# [3] = molecular target: T3, α-D-galactosidase (Coffea arabica, UniProt Q42656); assay: Glycosidase assay, p-nitrophenyl substrate; format: biochemical; settings: Green coffee bean enzyme; screened at 0.14 mg mL−1 (footnote: 0.4 mM)
# T3 construct: purchased Sigma Aldrich Chemicals Limited
# Method: as §1, §2
# [4] = molecular target: T4, α-D-glucosidase (Saccharomyces cerevisiae, UniProt P53341); assay: Glycosidase assay, p-nitrophenyl substrate; format: biochemical; settings: Saccharomyces cerevisiae enzyme; screened at 0.14 mg mL−1 (footnote: 0.4 mM); 20° C
# T4 construct: purchased Sigma Aldrich Chemicals Limited
# Method: as §1, §2
# [5] = molecular target: T5, α-D-mannosidase (Canavalia ensiformis, UniProt C0HJB3); assay: Glycosidase assay, p-nitrophenyl substrate; format: biochemical; settings: Jack bean enzyme; screened at 0.14 mg mL−1 (footnote: 0.4 mM)
# T5 construct: purchased Sigma Aldrich Chemicals Limited
# T5 sequence (C0HJB3 1-981): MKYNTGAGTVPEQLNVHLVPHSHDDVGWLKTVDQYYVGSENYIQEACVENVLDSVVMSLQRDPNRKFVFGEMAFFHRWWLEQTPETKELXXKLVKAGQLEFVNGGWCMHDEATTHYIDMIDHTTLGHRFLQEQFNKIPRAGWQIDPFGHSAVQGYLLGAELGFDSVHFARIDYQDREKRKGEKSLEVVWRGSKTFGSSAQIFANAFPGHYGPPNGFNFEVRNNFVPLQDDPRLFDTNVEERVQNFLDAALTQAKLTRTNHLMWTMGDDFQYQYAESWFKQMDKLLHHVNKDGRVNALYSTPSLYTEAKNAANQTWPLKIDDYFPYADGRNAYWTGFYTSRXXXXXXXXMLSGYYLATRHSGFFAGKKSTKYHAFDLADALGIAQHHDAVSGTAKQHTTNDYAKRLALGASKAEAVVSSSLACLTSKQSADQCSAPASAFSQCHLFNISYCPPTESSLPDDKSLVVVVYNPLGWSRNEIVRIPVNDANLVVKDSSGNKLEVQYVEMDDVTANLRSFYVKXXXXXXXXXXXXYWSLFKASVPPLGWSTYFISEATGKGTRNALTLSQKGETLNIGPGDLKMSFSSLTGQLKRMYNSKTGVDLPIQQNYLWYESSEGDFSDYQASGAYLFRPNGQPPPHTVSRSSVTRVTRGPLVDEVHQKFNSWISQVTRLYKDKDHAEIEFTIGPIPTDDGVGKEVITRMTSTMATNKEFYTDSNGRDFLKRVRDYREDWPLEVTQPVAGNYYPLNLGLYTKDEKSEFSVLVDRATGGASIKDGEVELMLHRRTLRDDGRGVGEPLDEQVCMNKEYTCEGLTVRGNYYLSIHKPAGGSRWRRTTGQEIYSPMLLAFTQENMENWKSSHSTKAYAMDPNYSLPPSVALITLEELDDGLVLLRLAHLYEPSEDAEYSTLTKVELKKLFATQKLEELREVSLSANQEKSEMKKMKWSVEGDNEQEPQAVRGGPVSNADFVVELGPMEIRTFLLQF
# Method: as §1, §2
# [6] = molecular target: T6, N-acetyl-β-D-hexosaminidase (Aspergillus oryzae, UniProt Q8J2T0); assay: Glycosidase assay, p-nitrophenyl substrate; format: biochemical; settings: Aspergillus oryzae enzyme; screened at 0.14 mg mL−1 (footnote: 0.4 mM)
# T6 construct: purchased Sigma Aldrich Chemicals Limited
# Method: as §1, §2
# [7] = test system: male ddy mouse; assay: Maltose loading test, blood glucose in mice; format: in vivo; settings: oral maltose 2.5 g/kg, test sample 500 mg/kg body weight, mean n = 5
# Method: (§3) The animal experimental protocols in this study were approved by the Animal Experiments Committee of the University of Toyama (S-2010 UH-2). Male ddy mice (29-33 g) after an overnight fast were used for acute disaccharide loading tests. Maltose (2.5 g/kg body weight) or Sucrose (2.5 g/kg body weight) as well as the test samples were dissolved in 0.9% NaCl solution and administered to mice via a stomach tube. A control group was loaded with saline only.
# (§4) Blood samples for glucose measurements were obtained from the tail vein at 0, 15, 30, 60, and 120 min after disaccharide-loading. The blood glucose levels were measured by a portable kit, Antsence II™ (Sankyo Co. Ltd. Tokyo, Japan). The Zizyphus extract HS0810/142/41 as well as the purified compounds were tested in this way.
# [8] = test system: male ddy mouse; assay: Sucrose loading test, blood glucose in mice; format: in vivo; settings: oral sucrose 2.5 g/kg, test sample 500 mg/kg body weight, mean n = 5
# Method: as §3, §4
# [9] = test system: β-D-glucosidase; assay: Glycosidase assay, p-nitrophenyl substrate; format: biochemical; settings: Almond enzyme; screened at 0.14 mg mL−1 (footnote: 0.4 mM)
# Method: as §1, §2
# [10] = molecular target: T7, Amyloglucosidase (Aspergillus niger, UniProt P69328); assay: Glycosidase assay, p-nitrophenyl substrate; format: biochemical; settings: Aspergillus niger enzyme; screened at 0.14 mg mL−1 (footnote: 0.4 mM)
# T7 construct: purchased Sigma Aldrich Chemicals Limited
# Method: as §1, §2
# [11] = test system: β-D-galactosidase; assay: Glycosidase assay, p-nitrophenyl substrate; format: biochemical; settings: Bovine liver enzyme; screened at 0.14 mg mL−1 (footnote: 0.4 mM)
# Method: as §1, §2
# [12] = test system: β-D-mannosidase; assay: Glycosidase assay, p-nitrophenyl substrate; format: biochemical; settings: Cellullomonas fimi enzyme; screened at 0.14 mg mL−1 (footnote: 0.4 mM)
# Method: as §1, §2
# [13] = test system: N-acetyl-β-D-glucosaminidase; assay: Glycosidase assay, p-nitrophenyl substrate; format: biochemical; settings: screened at 0.14 mg mL−1 (footnote: 0.4 mM)
# Method: as §1, §2
# [14] = test system: α-D-glucosidase; assay: Glycosidase assay, p-nitrophenyl substrate; format: biochemical; settings: Bacillus sterothermphilus enzyme; screened at 0.14 mg mL−1 (footnote: 0.4 mM)
# Method: as §1, §2
# [15] = test system: Naringinase; assay: Glycosidase assay, p-nitrophenyl substrate; format: biochemical; settings: Penicillium decumbens enzyme; screened at 0.14 mg mL−1 (footnote: 0.4 mM)
# Method: as §1, §2
# [16] = test system: sialidase (NanH from T. forsythia); assay: Sialidase assay with MUNANA substrate; format: biochemical, Tannerella forsythia; settings: 1 mM inhibitor, 2.5 nM sialidase, 0.1 mM MUNANA, pH 7.2
# Method: (§5) Sialidase assays used 1 mM inhibitor (or water without inhibitor) and 2.5 nM sialidase (including NanH from T. forsythia) incubated in the presence of 0.1 mM methylumbeliferyl-N-acetylneuraminic acid, pH 7.2 in 20 mM sodium phosphate buffer. Reactions were stopped at 30 seconds and 60 seconds via addition of ph 10.5 60 mM sodium carbonate buffer. Release of fluorogenic MU was quantified by measuring fluorescence emission at 450 nm, excitation 350 nm. Percentage sialidase activity was expressed as the change in fluorescence between 30 seconds and 60 seconds compared to that of a reaction without inhibitor. Reactions were carried out in triplicate.
# MU release can be used to quantify sialidase activity.
# as §5, with “1” for “Sialidase assays used 1”, “forsythia) was” for “forsythia)”, “MUNANA,” for “methylumbeliferyl-N-acetylneuraminic acid,”, “7.2” for “7.2 in”, “Sodium Phosphate” for “sodium phosphate”
# [17] = test system: glucosidases; assay: Glycosidase panel, glucosidases overall; format: biochemical; settings: panel of glucosidases
# Method: Glycosidase assays were conducted on Compounds 1 and 3 and an extract of Zizyphus used in the disaccharide loading mouse studies to determine if glucosidase inhibition might explain the effects on blood glucose. A panel of glycosidases were used to be sure any activity found was a selective inhibition and not just non-specific binding to the enzyme.
# as §1, with “triplicate. […]” for “triplicate.”
# T4 sequence (P53341 whole entry): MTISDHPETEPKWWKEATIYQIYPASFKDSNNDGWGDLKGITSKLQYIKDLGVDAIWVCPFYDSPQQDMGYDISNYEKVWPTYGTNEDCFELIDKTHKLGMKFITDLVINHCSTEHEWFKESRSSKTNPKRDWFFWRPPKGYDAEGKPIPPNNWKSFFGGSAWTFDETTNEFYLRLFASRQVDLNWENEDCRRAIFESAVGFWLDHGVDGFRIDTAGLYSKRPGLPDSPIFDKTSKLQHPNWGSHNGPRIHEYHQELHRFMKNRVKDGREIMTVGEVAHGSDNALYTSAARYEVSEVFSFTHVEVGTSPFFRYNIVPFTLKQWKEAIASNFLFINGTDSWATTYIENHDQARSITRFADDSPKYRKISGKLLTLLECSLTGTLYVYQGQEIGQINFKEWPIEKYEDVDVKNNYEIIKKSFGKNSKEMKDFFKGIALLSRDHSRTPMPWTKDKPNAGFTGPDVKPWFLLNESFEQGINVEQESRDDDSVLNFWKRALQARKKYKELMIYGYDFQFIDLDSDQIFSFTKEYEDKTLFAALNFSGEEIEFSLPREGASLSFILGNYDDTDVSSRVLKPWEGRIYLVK
# T2 sequence (Q653V7 34-885): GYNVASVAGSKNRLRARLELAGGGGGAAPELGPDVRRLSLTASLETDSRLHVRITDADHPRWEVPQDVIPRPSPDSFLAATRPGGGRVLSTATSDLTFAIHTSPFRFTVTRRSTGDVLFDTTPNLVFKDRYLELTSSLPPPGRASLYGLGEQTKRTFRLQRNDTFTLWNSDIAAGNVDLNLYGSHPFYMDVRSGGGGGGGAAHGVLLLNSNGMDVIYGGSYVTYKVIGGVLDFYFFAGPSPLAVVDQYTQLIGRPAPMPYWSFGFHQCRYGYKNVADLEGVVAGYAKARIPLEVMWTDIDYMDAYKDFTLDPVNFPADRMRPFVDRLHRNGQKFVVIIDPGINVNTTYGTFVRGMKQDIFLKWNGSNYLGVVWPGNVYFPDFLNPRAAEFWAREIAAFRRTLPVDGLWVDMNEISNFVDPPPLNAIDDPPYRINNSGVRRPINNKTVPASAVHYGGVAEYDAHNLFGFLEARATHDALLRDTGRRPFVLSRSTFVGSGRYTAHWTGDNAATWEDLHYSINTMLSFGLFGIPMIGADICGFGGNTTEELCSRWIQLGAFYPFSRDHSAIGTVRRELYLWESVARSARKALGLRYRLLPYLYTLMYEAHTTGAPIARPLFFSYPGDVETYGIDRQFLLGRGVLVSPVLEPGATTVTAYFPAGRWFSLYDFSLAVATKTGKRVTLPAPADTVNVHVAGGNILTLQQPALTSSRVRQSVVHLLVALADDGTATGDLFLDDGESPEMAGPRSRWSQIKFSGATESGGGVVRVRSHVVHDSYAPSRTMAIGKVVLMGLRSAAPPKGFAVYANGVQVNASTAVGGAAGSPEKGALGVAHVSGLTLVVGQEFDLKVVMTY
# T6 sequence (Q8J2T0 97-600): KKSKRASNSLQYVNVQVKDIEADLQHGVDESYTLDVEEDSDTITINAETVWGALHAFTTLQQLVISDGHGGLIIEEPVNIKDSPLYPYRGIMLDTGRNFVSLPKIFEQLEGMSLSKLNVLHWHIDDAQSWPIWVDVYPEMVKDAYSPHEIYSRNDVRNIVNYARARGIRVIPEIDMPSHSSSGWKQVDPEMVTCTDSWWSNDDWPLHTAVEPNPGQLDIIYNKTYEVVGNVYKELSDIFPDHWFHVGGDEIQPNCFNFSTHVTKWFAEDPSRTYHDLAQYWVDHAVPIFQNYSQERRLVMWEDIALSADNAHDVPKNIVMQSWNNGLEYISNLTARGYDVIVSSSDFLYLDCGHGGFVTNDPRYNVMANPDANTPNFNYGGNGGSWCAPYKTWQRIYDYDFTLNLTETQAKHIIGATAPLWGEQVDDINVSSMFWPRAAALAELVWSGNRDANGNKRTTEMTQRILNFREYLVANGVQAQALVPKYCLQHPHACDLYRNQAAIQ
# T3 sequence (Q42656 16-378): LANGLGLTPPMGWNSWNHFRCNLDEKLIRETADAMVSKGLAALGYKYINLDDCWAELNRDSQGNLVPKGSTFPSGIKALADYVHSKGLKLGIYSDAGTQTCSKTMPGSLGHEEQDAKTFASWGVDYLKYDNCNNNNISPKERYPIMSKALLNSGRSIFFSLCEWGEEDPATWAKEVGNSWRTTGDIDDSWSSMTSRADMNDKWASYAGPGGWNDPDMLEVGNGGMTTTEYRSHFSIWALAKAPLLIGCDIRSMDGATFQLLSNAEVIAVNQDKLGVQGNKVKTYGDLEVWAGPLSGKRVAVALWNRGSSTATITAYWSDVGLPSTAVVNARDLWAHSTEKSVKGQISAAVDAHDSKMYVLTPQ
# T7 sequence (P69328 25-640): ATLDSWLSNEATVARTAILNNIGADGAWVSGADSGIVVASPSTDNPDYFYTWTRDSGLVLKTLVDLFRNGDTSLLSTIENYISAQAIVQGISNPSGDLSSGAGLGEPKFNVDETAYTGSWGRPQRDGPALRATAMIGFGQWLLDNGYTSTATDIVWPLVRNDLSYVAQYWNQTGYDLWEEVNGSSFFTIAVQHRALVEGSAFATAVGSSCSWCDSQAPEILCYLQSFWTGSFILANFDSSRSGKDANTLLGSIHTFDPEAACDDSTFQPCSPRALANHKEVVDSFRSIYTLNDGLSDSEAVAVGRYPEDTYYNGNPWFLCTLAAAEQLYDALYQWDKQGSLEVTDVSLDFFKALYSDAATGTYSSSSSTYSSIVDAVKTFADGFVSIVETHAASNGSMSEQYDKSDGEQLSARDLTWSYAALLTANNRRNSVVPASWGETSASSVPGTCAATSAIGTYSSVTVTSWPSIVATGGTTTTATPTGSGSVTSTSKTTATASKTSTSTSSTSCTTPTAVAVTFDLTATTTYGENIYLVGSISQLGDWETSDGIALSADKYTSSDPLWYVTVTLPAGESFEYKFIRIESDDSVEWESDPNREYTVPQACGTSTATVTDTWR
SMILES,% inhibition [1],% inhibition [2],% inhibition [3],% inhibition [4],% inhibition [5],% inhibition [6],blood glucose ([7]; 0 min after administration),blood glucose ([7]; 15 min after administration),blood glucose ([7]; 30 min after administration),blood glucose ([7]; 60 min after administration),blood glucose ([7]; 120 min after administration),other results
"CN1C[C@@H](CO)C[C@H]1C(=O)O [Compound 1, N-methyl-4S-(hydroxymethyl)-2S-pyrrolidinecarboxylic acid]",15%,5%,<5%,<5%,18%,−6%,83 mg/dL,231 mg/dL,187 mg/dL,140 mg/dL,74 mg/dL,
"CN1C[C@](O)(CO)C[C@H]1C(=O)O [Compound 3, N-methyl-4-hydroxy-4S-(hydroxymethyl)-2S-pyrrolidinecarboxylic acid]",,11%,<5%,<5%,6%,−6%,83 mg/dL,233 mg/dL,185 mg/dL,130 mg/dL,80 mg/dL,blood glucose ([8]; 0 min after administration): 109 mg/dL; blood glucose ([8]; 15 min after administration): 183 mg/dL; blood glucose ([8]; 30 min after administration): 143 mg/dL; blood glucose ([8]; 60 min after administration): 106 mg/dL; blood glucose ([8]; 120 min after administration): 80 mg/dL
"OC[C@H]1NC[C@H](O)[C@@H](O)[C@@H]1O [DNJ, 1-deoxynojirimycin]",5.86%,99.56%,−3.34%,35.67%,26.65%,−5.50%,,,,,,% inhibition [9]: 63.7%; % inhibition [10]: 31.71%; % inhibition [11]: 0.45%; % inhibition [12]: −19.03%; % inhibition ([13]; Bovine kidney enzyme): −0.83%; % inhibition ([13]; Jack bean enzyme): 2.76%; % inhibition [14]: 99.48%; % inhibition [15]: 20.81%; % inhibition [16]: 2%; glucosidase inhibition (in words) [17]: expected strong inhibition of various glucosidases
